The source made the active and inactive calls. No cut-off for these calls is given here.
Assays:
Microbotryum violaceum = assay: Antimicrobial activity against Ustilago violacea at 50 ug by agar plate diffusion assay; format: functional; conditions: read-out: IZ
[1] = target: Human immunodeficiency virus type 1 reverse transcriptase (Human immunodeficiency virus 1) (UniProt Q72547); assay: Inhibition of HIV1 reverse transcriptase by ELISA
[2] = target: Tyrosine-protein kinase Lck (Homo sapiens) (UniProt P06239); assay: Inhibition of tyrosine kinase lckp56 by ELISA
[Chlorella] fusca = Antimicrobial activity against Chlorella fusca at 50 ug by agar plate diffusion assay; format: functional; conditions: Scenedesmus fuscus; read-out: IZ

Tyrosine-protein kinase Lck (Homo sapiens), sequence (P06239 2-509 limits assumed): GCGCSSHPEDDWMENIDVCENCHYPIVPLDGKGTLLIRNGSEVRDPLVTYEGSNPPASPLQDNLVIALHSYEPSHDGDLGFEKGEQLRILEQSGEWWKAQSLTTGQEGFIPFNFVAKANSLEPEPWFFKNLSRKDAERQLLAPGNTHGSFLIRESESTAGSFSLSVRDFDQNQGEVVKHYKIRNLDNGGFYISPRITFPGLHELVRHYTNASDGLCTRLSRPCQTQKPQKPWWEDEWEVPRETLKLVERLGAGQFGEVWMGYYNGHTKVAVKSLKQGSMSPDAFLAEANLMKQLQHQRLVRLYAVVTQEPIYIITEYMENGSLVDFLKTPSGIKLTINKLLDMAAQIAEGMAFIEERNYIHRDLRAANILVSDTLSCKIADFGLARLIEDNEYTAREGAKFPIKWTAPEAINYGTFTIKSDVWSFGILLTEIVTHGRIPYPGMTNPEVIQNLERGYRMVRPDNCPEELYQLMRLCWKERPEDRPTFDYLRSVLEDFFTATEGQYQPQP

Activity [1] | Activity [2] | SMILES | zone of inhibition at 50 µg/disc (Microbotryum violaceum) | zone of inhibition at 50 µg/disc ([Chlorella] fusca)
inactive | inactive | COC(=O)C(C)/C1=C/C=C(\C)CC[C@H]2O[C@]2(C)CC/C=C(\C)CC1 (some centres not stated) | 1 mm | 
inactive | inactive | CC1=C2CC/C(C)=C/CC[C@@]3(C)O[C@H]3CC/C(C)=C/[C@@H]2OC1 | 3 mm | 3 mm
